Test results: patent US12509451B2, “Heteroaryl amide inhibitors of CD38” (NAPA THERAPEUTICS LTD., priority 2020, dated 2025)
Where “and” joins values, the source holds several entries; their conditions need not be identical. Equal entries are not always repeated.

Key:
[1] = biological target: T1, human CD38 enzyme in primary human M1 macrophages (Homo sapiens, UniProt P28907); experiment: NAD+ hydrolase activity assay in primary human M1 macrophages; type: cell-based; conditions: primary human M1 macrophages (LPS stimulated)
T1 construct: The assay utilized whole primary human macrophages (from healthy donors); endogenous in cells; host or cells: primary human macrophages from healthy donors, LPS-stimulated (M1)
T1 sequence (P28907 1-300): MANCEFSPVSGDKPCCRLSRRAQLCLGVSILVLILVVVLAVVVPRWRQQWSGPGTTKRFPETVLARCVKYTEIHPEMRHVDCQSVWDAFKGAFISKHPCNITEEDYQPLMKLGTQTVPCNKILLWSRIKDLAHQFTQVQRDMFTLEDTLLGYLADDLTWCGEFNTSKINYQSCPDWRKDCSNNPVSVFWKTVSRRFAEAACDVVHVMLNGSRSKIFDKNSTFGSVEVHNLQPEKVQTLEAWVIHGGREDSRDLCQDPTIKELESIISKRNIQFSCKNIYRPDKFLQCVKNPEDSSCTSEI
Experimental: The in vitro potency of Compound 35 against the human CD38 enzyme was determined by a fluorescence-based NAD+ hydrolase activity assay using the NAD+ analog nicotinamide 1,N^6-etheno-adenine dinucleotide (εNAD+) as substrate. The assay utilized: 1) whole primary human CD4+ T cells (from healthy donors) activated with anti-CD3/CD28 antibodies and expressing human CD38; or II) whole primary human macrophages (from healthy donors) stimulated with LPS to polarize in a pro-inflammatory M1 state expressing human CD38. The cells were incubated in the presence of 8 different concentrations of Compound 35 for 10 minutes and the reaction was started adding the substrate εNAD+. The emission of fluorescence was measured at 410-20 nm at 37° C. every minute for 1 hr. The NAD+ hydrolase activity was calculated as the slope of the linear portion of the fluorescence-time curve and used to calculate the IC50 value.
(§1) The in vitro potency of Compound 32 against the human CD38 enzyme was determined by a fluorescence-based NAD+ hydrolase activity assay using the NAD+ analog nicotinamide 1,N6-etheno-adenine dinucleotide (εNAD+) as substrate. The assay utilized whole primary human macrophages (from healthy donors) stimulated with LPS to polarize in a pro-inflammatory M1 state expressing human CD38. […] The emission of fluorescence was measured at 410-20 nm at 37° C. every minute for 1 hr. The NAD+ hydrolase activity was calculated as the slope of the linear portion of the fluorescence-time curve and used to calculate the IC50 value.
as §1, with “39” for “32”, “substrate.” for “substrate. The assay utilized whole primary human macrophages (from healthy donors) stimulated with LPS to polarize in a pro-inflammatory M1 state expressing human CD38.”

[2] = biological target: T2, recombinant mouse CD38 Protein (Mus musculus, UniProt P56528); experiment: Fluorescence-based NAD+ cyclase activity assay with mouse recombinant CD38 protein (Assay 4); type: biochemical; conditions: read-out: Assay 4 Arithmetic mean IC50
T2 construct: purchased R&D System
T2 sequence (P56528 1-304): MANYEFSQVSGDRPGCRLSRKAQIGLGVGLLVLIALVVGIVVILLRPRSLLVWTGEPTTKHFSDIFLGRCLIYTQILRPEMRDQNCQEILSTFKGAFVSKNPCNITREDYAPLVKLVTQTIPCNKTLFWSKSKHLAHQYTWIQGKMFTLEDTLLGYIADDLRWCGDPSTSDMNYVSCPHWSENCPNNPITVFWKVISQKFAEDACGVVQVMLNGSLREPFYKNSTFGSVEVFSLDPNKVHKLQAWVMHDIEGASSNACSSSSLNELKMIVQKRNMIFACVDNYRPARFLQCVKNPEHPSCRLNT
Experimental: This protocol was modified from de Oliveira et al. (2018) supra.
NAD+ cyclase activity of the […] recombinant CD38 protein treated with test compounds was measured using a fluorescence-based assay. Briefly, recombinant mouse CD38 Protein (R&D System) was resuspended in 44 μl/well of Sucrose-Tris Buffer (Sucrose 0.25 M, Tris pH 7.4 40 mM) and plated in a 96-well black plate (CORNING) at a density of 32 ng/well.
Each test compound was received in a powder state and dissolved in DMSO as a 25 mM stock solution. Each test compound was serially diluted in order to generate a dose-response curve. The dilution series of each test compound in DMSO was prepared at 50 times the concentrations to be assayed. Each test compound was diluted to generate a 5-fold dilution series of 8 concentrations from 100 μM to 32 nM in order to assay 8 final concentrations ranging from 2 μM to 0.64 nM. One μl of the 50× concentration compound series was added to each well of the plate containing 125 ng of protein in Sucrose-Tris buffer.
Each plate had the following intra plate controls: 3 wells containing cells treated with vehicle only (DMSO), 3 wells of cells treated with the reference compounds 78c at a final concentration of 500 nM and 2 wells containing only Sucrose-Tris buffer (used as a background value).
The reaction was started adding nicotinamide guanine dinucleotide (NGD+) (Sigma Aldrich) to reach a final concentration of 150 µM. The samples were excited at 337-15 nm and the emission of fluorescence was measured at 442-20 nm at 37° C. every minute for 1 hr in a Clariostar® microplate reader (BMG LABTECH). NAD+ cyclase activity was calculated as the slope of the linear portion of the fluorescence-time curve using the MARS data analysis software (BMG LABTECH). The data were uploaded in the Collaborative Drug Design (CDD) Software and for each compound the IC50 was calculated by the software. Each compound was tested in 3 independent experiments on 3 separate days to establish the reproducibility of the results. For each plate, the z-factor was also calculated as a plate quality using the CDD software.

Compound | IC50 [1] | IC50 [2]
O=C(Nc1ccnc(C(F)(F)F)c1)c1cc(OC2CC2)cc(-n2ccnc2)n1 [Compound 32, 4-cyclopropoxy-6-(1H-imidazol-1-yl)-N-(2-(trifluoromethyl)pyridin-4-yl)picolinamide] | 3.5 nM and 3.49 nM | –
CN(C)CCOc1cc(C(=O)Nc2ccnc(C(F)(F)F)c2)nc(-n2ccnc2)c1 [Compound 33] | – | 1 to 50 nM
CC1(Oc2cc(C(=O)Nc3ccnc(C(F)(F)F)c3)nc(-n3ccnc3)c2)COC1 [Compound 34, 6-(1H-imidazol-1-yl)-4-((3-methyloxetan-3-yl)oxy)-N-(2-(trifluoromethyl)pyridin-4-yl)picolinamide] | – | 51 to 1000 nM
COc1cc(C(=O)Nc2ccnc(C(F)(F)F)c2)nc(-n2ccnc2)c1 [Compound 35, 6-(1H-imidazol-1-yl)-4-methoxy-N-(2-(trifluoromethyl)pyridin-4-yl)picolinamide] | 2.25 nM | 1 to 50 nM
COc1cc(C(=O)Nc2ccnc(C(F)(F)F)c2)nc(-n2ccnc2)n1 [Compound 37, 2-(1H-imidazol-1-yl)-6-methoxy-N-(2-(trifluoromethyl)pyridin-4-yl)pyrimidine-4-carboxamide] | – | 51 to 1000 nM
CCOc1cc(C(=O)Nc2ccnc(C(F)(F)F)c2)nc(-n2ccnc2)n1 [Compound 38] | – | 51 to 1000 nM
COCCOc1cc(C(=O)Nc2ccnc(C(F)(F)F)c2)nc(-n2ccnc2)n1 [Compound 39, 2-(1H-imidazol-1-yl)-6-(2-methoxyethoxy)-N-(2-(trifluoromethyl)pyridin-4-yl)pyrimidine-4-carboxamide] | 3.9 nM and 3.92 nM | 1 to 50 nM
O=C(Nc1ccnc(C(F)(F)F)c1)c1cc(OC2CC2)nc(-n2ccnc2)n1 [Compound 40] | – | 51 to 1000 nM
O=C(Nc1ccnc(C(F)(F)F)c1)c1cc(C2CC2)nc(-n2ccnc2)n1 [Compound 51, 6-cyclopropyl-2-(1H-imidazol-1-yl)-N-(2-(trifluoromethyl)pyridin-4-yl)pyrimidine-4-carboxamide] | – | 1 to 50 nM
